The results in this text go back to patent US20070275007A1, “Carbohydrate Antigen-Nanoparticle Conjugates and Uses Thereof as Antimetastatic Agents in Treating Cancer” (The Government of the United States of America, represented …, priority 2003, published 2007).

The series can be described thus: Solubility in water and organic solvents. In kind it is physicochemical.

Turning to `CC(=O)NC1[C@H](OCCCCCS)OC(CO)[C@H](O)[C@@H]1O[C@@H]1OC(CO)[C@H](O)[C@H](O)C1O` (stereo partly drawn) [126E-23], the solubility in chloroform entry (chloroform) is “moderately soluble”. Moreover, the solubility in methanol result (methanol (methanol and other organic solvents)) is “moderately soluble”. For the same molecule, the solubility in water entry (water) is given as “soluble”.
